Activity calls are given as the source filed them.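 The calls were made as follows: active = compounds giving half or more protection of infected cells from virus-caused growth loss, again on retest; inactive = the rest.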
Tested on: CEM cells HIV-1 protection, formazan growth assay
Assay: NCI AIDS Antiviral Assay
Settings: for IC50: measured here: growth of uninfected CEM cells
Method in brief: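 Soluble formazan readout of cell growth; CEM cells ± HIV-1; 5 drug concs. ≥50% protection → retest; ≥50% again = moderately active; reproducible 100% = confirmed active.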

Compound: Cc1cc2c(c(S(=O)(=O)c3ccc(Cl)cc3[N+](=O)[O-])c1)NCCC2
- EC50: > 75.9 µM
- IC50: 27.5 µM

Compound: Cn1c2c(c3ccccc31)CCN(CCCN1CCN(c3cccc(Cl)c3)CC1)C2=O
- EC50: > 16.6 µM
- IC50: > 16.6 µM

Compound: CCOC(=O)C1(N=O)CCCCC1=O (stereo not drawn)
- EC50: > 200 µM
- IC50: > 200 µM

Compound: CCCCOC(=O)C1CC2OC2CC1C(=O)OCCCCOC(=O)C1CC2OC2CC1C(=O)OCCCC (stereo not drawn)
- EC50: > 200 µM
- IC50: 21.9 µM

Compound: COc1cc2cc(C(=O)N3CC(CCl)c4c3cc(N(C)C)c3ccccc43)[nH]c2c(OC)c1OC (stereo not drawn)
- EC50: > 0.2 µM
- IC50: 0.0129 µM

Compound: O=C(Oc1ccccc1)C(c1ccccc1)c1ccccc1
- EC50: > 102 µM
- IC50: > 102 µM

Compound: CNC(=O)Oc1c(Cl)cccc1SSc1cccc(Cl)c1OC(=O)NC
- EC50: > 200 µM
- IC50: 19.5 µM

Compound: CC(=O)Nc1ccc(S(=O)(=O)c2nnc(NC(C)=O)s2)cc1
- EC50: > 741 µM
- IC50: 331 µM

Compound: COc1ccc(NC(=S)Nc2cccc(C)n2)cc1
- EC50: > 200 µM
- IC50: > 200 µM

Compound: C[n+]1c(-c2ccc(/C=N\NC(=O)N/N=C/c3ccc(-c4cn5ccccc5[n+]4C)cc3)cc2)cn2ccccc21
- EC50: 36.3 µM
- IC50: 47.9 µM

Compound: CCC(C)N1CN(c2ccccc2)C2(CCN(CCCC3(c4ccc(F)cc4)OCCO3)CC2)C1=O (stereo not drawn)
- EC50: > 200 µM
- IC50: 6.92 µM

Compound: CCOC(=O)C1=NC(c2ccccc2)(c2ccccc2)OC1=C(Cl)Cl
- EC50: > 1 µM
- IC50: > 1 µM

Compound: O=S(=O)([O-])[O-].O=c1[nH]cnc2[nH]ncc12.O=c1[nH]cnc2[nH]ncc12.[Cu+2]
- EC50: > 83.2 µM
- IC50: 52.5 µM

Compound: COC(=O)CCC(=O)CC1CC(=O)C2CCCN12 (stereo not drawn)
- outcome: inactive

Compound: N#CCCN(CCN(C(=O)Nc1ccccc1)c1ccccc1)C(=O)Nc1ccccc1
- EC50: > 200 µM
- IC50: 55 µM

Compound: CC(=O)Nc1nc(C)c(CCC#N)c(SC(=N)N)n1
- EC50: > 200 µM
- IC50: > 200 µM

Compound: CC1CC/C(=C\c2ccc(Cl)cc2)C(=O)/C1=C\c1ccc(Cl)cc1 (stereo not drawn)
- EC50: > 200 µM
- IC50: 42.7 µM

Compound: O=C(Nc1ccc(Cl)c(Cl)c1)NC(CO)(CO)CO
- EC50: > 200 µM
- IC50: 110 µM

Compound: Cc1ccc(S(=O)(=O)N/N=C2\CCCCCCCCCCC2CN(C)C)cc1 (stereo not drawn)
- EC50: > 200 µM
- IC50: 28.2 µM

Compound: COc1cccc(NC(=S)Nn2c(C)nc3ccccc3c2=O)c1
- EC50: > 105 µM
- IC50: > 105 µM

Compound: COC(=O)[C@H]1COC(=O)N1
- EC50: > 200 µM
- IC50: > 200 µM

Compound: CC1C[C@H](C)CC(C(O)CC2CC(=O)N(Cc3ccccc3)C(=O)C2)C1O (stereo partly drawn)
- EC50: > 200 µM
- IC50: > 200 µM

Compound: CC(C)N(C(=O)C12C3C4C1C1C2C3C41C(O)C(C)(C)C)C(C)C (stereo not drawn)
- EC50: 3.02 µM
- IC50: 12 µM

Compound: Cc1ccc2nc(NC(=O)C(=O)C(C#N)c3ccc(Cl)cc3)sc2c1 (stereo not drawn)
- EC50: > 49 µM
- IC50: > 49 µM

Compound: COc1ccc(O)c(/C=N/NC(=S)N2CCCCC2)c1
- EC50: > 200 µM
- IC50: 8.13 µM

Compound: NCCCc1c(-c2ccccc2)nc(N)[nH]c1=O
- EC50: > 200 µM
- IC50: > 200 µM

Compound: Cc1nnc(NS(=O)(=O)c2ccc(N=NC3SC(=S)NC3=O)cc2)s1 (stereo not drawn)
- EC50: > 200 µM
- IC50: > 200 µM

Compound: CCCC(=O)c1ccc(=O)n(C)c1
- EC50: > 1380 µM
- IC50: 1070 µM

Compound: CCOC(=O)Cn1c2ccccc2c(=O)c2cc(C)c(C)c(C#N)c21
- EC50: > 21.4 µM
- IC50: > 21.4 µM

Compound: O=C1C(Cl)C(c2cc(Br)cc(Br)c2O)N1n1cnc2ccccc2c1=O (stereo not drawn)
- EC50: > 10.5 µM
- IC50: > 10.5 µM

Compound: COC1(OC)CC2C(=O)N(Cc3ccccc3)C1CC2S(=O)(=O)c1ccccc1 (stereo not drawn)
- outcome: inactive

Compound: Cc1ccc(/C=N/Nc2ccccn2)s1
- EC50: > 200 µM
- IC50: > 200 µM

Compound: CCCCc1ccc(N2C(=O)c3cc([N+](=O)[O-])cnc3S2(=O)=O)cc1
- EC50: > 2 µM
- IC50: 0.479 µM

Compound: CCOC(=O)C(Br)=C1OC(=O)c2ccccc2-c2ccccc21 (mixture of isomers)
- EC50: > 36.3 µM
- IC50: > 36.3 µM

Compound: O=c1[nH]cnc2c1ccn2C1OC(CO)C(O)C1O (stereo not drawn)
- EC50: > 20 µM
- IC50: 2.04 µM

Compound: CN(C)CCC(/C=C/c1ccccc1)=N\Nc1ccc(Cl)c(Cl)c1
- outcome: inactive

Compound: Cc1ccc(S(=O)(=O)N2CCCCN(S(=O)(=O)c3ccc(C)cc3)Cc3ccccc3OCCOCCOc3c4cccc3Cc3cccc5c3OCCOCCOc3ccccc3CN(S(=O)(=O)c3ccc(C)cc3)CCCN(S(=O)(=O)c3ccc(C)cc3)Cc3ccccc3OCCOCCOc3c(cccc3C4)Cc3cccc(c3OCCOCCOc3ccccc3C2)C5)cc1
- EC50: > 100 µM
- IC50: > 100 µM

Compound: CSC1=N/C(=C\c2ccco2)C(=O)N1CN1CCOCC1
- EC50: > 200 µM
- IC50: 39.8 µM

Compound: O=C1/C(=C\c2cccc(Oc3ccccc3)c2)S(=O)(=O)C(c2ccccc2)N1c1cccc(Cl)c1 (stereo not drawn)
- EC50: > 200 µM
- IC50: 12.9 µM

Compound: N#CCCN(CCC#N)c1ccc(/C=C2\N=C(c3cc([N+](=O)[O-])ccc3Cl)N(S(=O)(=O)c3ccccc3)C2=O)cc1
- EC50: > 12.3 µM
- IC50: > 12.3 µM

Compound: C/C(=C\[C@H]1C[C@@H]([C@@H]2CC[C@]34C[C@]23C=C[C@@H]2[C@@]3(C)CC=C5C[C@@H](c6ccccc6)OC[C@]5(C)[C@@H]3C[C@@H](O)[C@]24C)C(=O)O1)CO
- EC50: > 200 µM
- IC50: 1.1 µM

Compound: O=c1nc2ccc3sc4ccccc4c(=O)c3n2c(=O)[nH]1
- EC50: > 200 µM
- IC50: 110 µM

Compound: CC(=Nc1ccccc1C(=O)[O-])c1c([O-])ccc2c(C)cc(=O)oc12.[Ni+2].[OH3+]
- EC50: > 2.51 µM
- IC50: > 2.51 µM

Compound: c1ccc([P+](CC[P+](c2ccccc2)(c2ccccc2)c2ccccc2)(c2ccccc2)c2ccccc2)cc1
- EC50: > 200 µM
- IC50: 6.17 µM

Compound: O=C1CCCc2cc3c(cc21)CC1(C3)Cc2ccc3c(c2C1)C(=O)CCC3 (stereo not drawn)
- EC50: > 200 µM
- IC50: 16.2 µM

Compound: Cc1c(N=Nc2ccc(Br)cc2)c(=O)n(-c2ccccc2)c(=O)n1-c1nc2ccccc2[nH]1
- EC50: > 89.1 µM
- IC50: 85.1 µM

Compound: COC(=O)[C@H](Cc1ccccc1)NC(=O)N1CCN(C(=O)N[C@@H](Cc2ccccc2)C(=O)OC)CCN(C(=O)N[C@@H](Cc2ccccc2)C(=O)OC)CC1
- EC50: > 200 µM
- IC50: > 200 µM

Compound: CCC(=O)c1c(NOC2OCC(OC(C)=O)C(OC(C)=O)C2OC(C)=O)nc(OC)n(C)c1=O (stereo not drawn)
- EC50: > 53.7 µM
- IC50: > 53.7 µM

Compound: O=C1CCC2=C(CCC2)N1CCc1ccc2c(c1)OCO2
- outcome: inactive

Compound: CN(C)c1cccc2c(S(=O)(=O)NCCCCCCCCCCCCNS(=O)(=O)c3cccc4c(N(C)C)cccc34)cccc12
- EC50: > 200 µM

Compound: COc1cc2c(c(OC)c1OC)-c1ccc(OC)c(=O)cc1C(NC1=C(Cl)C(=O)c3ccccc3C1=O)CC2 (stereo not drawn)
- EC50: > 174 µM
- IC50: 0.0562 µM

Compound: CCCCNC(=O)C1=C(C)NC(C)=C(C(=O)NCCCC)C1
- EC50: > 200 µM
- IC50: > 200 µM

Compound: CCOC(=O)[C@H]1Nc2ccc(Cl)cc2[C@H]2c3ccccc3O[C@H]21
- EC50: > 30.2 µM
- IC50: > 30.2 µM

Compound: COc1ccc2c(c1)OC[C@@H]1c3ccc(OCc4ccccc4)cc3O[C@H]21
- EC50: 46.8 µM
- IC50: > 200 µM

Compound: Cc1ccc(NC(=O)/C(CC2N=c3c(ccc4c(O)c5ccccc5c(O)c34)=NC2O)=N/NC(C)(C)C)cc1 (stereo not drawn)
- EC50: > 10 µM
- IC50: > 10 µM

Compound: CCOC(=O)Nc1cc2c(c(N)n1)N=C(c1ccc(OC)cc1)CN2
- EC50: > 11 µM
- IC50: 0.224 µM

Compound: O=C1NC(=S)N/C1=C/c1ccccc1O
- EC50: > 200 µM
- IC50: 123 µM

Compound: O=S(=O)(/N=S(/Nc1ccccc1)C(Cl)Cl)c1ccccc1 (stereo not drawn)
- EC50: > 200 µM
- IC50: > 200 µM

Compound: O=C1CCCCC/C1=C\c1ccccc1
- EC50: > 200 µM
- IC50: 52.5 µM

Reference: PubChem BioAssay AID179 (DTP/NCI, 2004)
